What was measured:
[1] = Unbound drug fraction in cell culture medium by rapid equilibrium dialysis; format: in vitro ADME; conditions: bovine, bovine serum albumin-containing cell culture medium
[2] = system: cryopreserved human primary hepatocytes; assay: Drug depletion; conditions: for interdonor variability in unbound intrinsic clearance (IDV): individual-donor data; for interdonor variability in unbound intrinsic clearance (IDV) / interwell variability in unbound intrinsic clearance (IWV): parentheses = relative standard error; for CLint(u) ratio individual-donor/pooled hepatocytes: parentheses = 95% confidence intervals (Fieller's theorem)
[3] = Prediction of in vivo hepatic clearance from liver MPS data; set-up: species or system human
[4] = individual-donor data (within donor)

Compound	fraction unbound [1]	interdonor variability in unbound intrinsic clearance (IDV) [2]	fold-error (underprediction) of in vivo hepatic clearance ([3]; parallel tube (PT) liver model) [fold]	fold-error (underprediction) of in vivo hepatic clearance ([3]; well stirred (WS) liver model) [fold]	interwell variability in unbound intrinsic clearance (IWV) [2, 4]	interdonor variability in unbound intrinsic clearance (IDV) ([2]; listed as phenacetin) [CV%]	CLint(u) ratio individual-donor/pooled hepatocytes [2]	interwell variability in unbound intrinsic clearance (IWV) ([2]; pooled hepatocytes data)
O=C(O)Cc1ccccc1Nc1c(Cl)cccc1Cl [Diclofenac, diclofenac]	0.13	36.2% (71.5%) CV%	–	–	–	–	–	–
C[C@]12C=CC(=O)C=C1CC[C@@H]1[C@@H]2[C@@H](O)C[C@@]2(C)[C@H]1CC[C@]2(O)C(=O)CO [Prednisolone, prednisolone]	0.94	29.3% (58.1%) CV%	–	–	21.5% (70.0%) CV%	–	0.89 (0.63, 1.16)	–
CC(C)NCC(O)COc1cccc2ccccc12 (stereo not shown) [Propranolol, propranolol]	0.98	–	–	–	–	–	–	–

Now from value to compound:

fraction unbound [1]	interdonor variability in unbound intrinsic clearance (IDV) [2]	fold-error (underprediction) of in vivo hepatic clearance ([3]; parallel tube (PT) liver model) [fold]	fold-error (underprediction) of in vivo hepatic clearance ([3]; well stirred (WS) liver model) [fold]	interwell variability in unbound intrinsic clearance (IWV) [2, 4]	interdonor variability in unbound intrinsic clearance (IDV) ([2]; listed as phenacetin) [CV%]	CLint(u) ratio individual-donor/pooled hepatocytes [2]	interwell variability in unbound intrinsic clearance (IWV) ([2]; pooled hepatocytes data)	Compound
0.31	–	–	–	–	–	–	–	CC(C)Cc1ccc(C(C)C(=O)O)cc1 (stereo not shown) [Ibuprofen, ibuprofen]
0.98	24.1% (80.4%) CV%	1.7	2.1	26.1% (65.2%) CV%	24.1	0.92 (0.61, 1.47)	30.7% (41.5%) CV%	CCOc1ccc(NC(C)=O)cc1 [Phenacetin, phenacetin]

Reference: paper PMC5193075 (The Journal of Pharmacology and Experimental Therapeutics, 2017)
